Measured values: patent US20040044006A1, “Methods of use of quinolone compounds against pneumococcal and haemophilus bacteria” (priority 1999, published 2004)
Values after ≈ are worked out from the molar mass of the structure shown. Read-outs that look alike come from different tables or passages of the source.

Assays:
[1] = test system: quinolone-resistant Haemophilus influenzae strains; assay: Microdilution MIC determination in HTM for quinolone-resistant Haemophilus influenzae strains; format: cell-based
Experimental: Inocula were prepared from chocolate agar plates incubated for a full 24 hours by the direct colony suspension method as follows: In a tube of Mueller-Hinton broth (Difco), an organism suspension was made to a density of a 0.5 McFarland standard (1×10^8 CFU/ml). The latter inoculum was diluted in sterile saline such that final organisms suspensions in trays yielded colony counts of 3-8×10^5 CFU/ml. Frozen microdilution trays were obtained from MicroMedia Systems, Inc. (Cleveland, Ohio, USA). Each tray contained all antimicrobials prepared in freshly made HTM. Wells were inoculated with 100 μl suspensions and incubated in ambient air at 35° C. for 20-24 hours. The lowest drug concentration showing no growth was read as the MIC. Standard quality control strains, including H. influenzae ATCC 49766, H. influenzae ATCC 49247, Staphylococcus aureus ATCC 29213 and Escherichia coli ATCC 25922 were included with each run.

[2] = test system: quinolone susceptible pneumococci (ciprofloxacin MICs ≦4.0 μg/ml); assay: Agar dilution MICs of 207 quinolone susceptible pneumococcal strains; format: cell-based, Streptococcus pneumoniae; conditions: Streptococcus pneumoniae, agar dilution; for MIC90: read-out: MIC90; for MIC: read-out: MIC range
Experimental: All susceptible, and some intermediate and resistant strains, were recent U.S. isolates. The remainder of intermediate and resistant strains were isolated in South Africa, Spain, France, Central and Eastern Europe, and Korea. […] Additionally these strains were tested for mutations in parC, gyrA, parE, and gyrB (Pan, et al., Antimicrob. Agents Chemother. 40:2321-2326, 1996) and for efflux mechanism (Brenwald, et al., Antimicrob. Agents Chemother. 42:2032-2035, 1998). For time-kill studies, 4 penicillin susceptible, 4 intermediate and 4 resistant strains (2 quinolone resistant) were tested, while for PAE studies 5 quinolone susceptible and 1 resistant strains were studied.
(§1) Agar dilution methodology was performed on 234 strains as described previously (M. R. Jacobs, Clin. Infect. Dis. 15:119-127, 1992; Jacobs, et al., Rev. Med. Microbiol. 6:77-93, 1995), using Mueller-Hinton agar (BBL Microbiology Systems, Cockeysville, Md.) supplemented with 5% sheep blood. Broth MICs for 12 strains tested by time-kill and 6 tested by PAE were performed according to NCCLS recommendations (Methods for Dilution Antimicrobial Susceptibility Tests for Bacteria that Grow Aerobically, 3rd Edition, NCCLS, Villanova, Pa.) using cation-adjusted Mueller-Hinton broth with 5% lysed defibrinated horse blood. Standard quality control strains, including Streptococcus pneumoniae ATCC 49619, were included in each run of agar and broth dilution MICs.

pneumococcal strains = assay: Microbroth dilution MICs of strains tested by time-kill and PAE; format: cell-based; conditions: Streptococcus pneumoniae, read-out: Microdilution MIC
Experimental: as §1

[3] = strain 1, mutations S133-A N138-S, None, S84-L
[4] = strain 2, mutations NONE, S458-L, S84-F, None
[5] = strain 3, mutations S84-I, None, S84-L
[6] = strain 4, mutations D83-N, S458-S-T459, S84-F D88-N, Q468-R
[7] = strain 5, mutations E88-K, G405-S, S84-Y, None
[8] = strain 6, mutations S84-R, D420-N, S84-L A117-E, None
[9] = strain 7, mutations S84-R, D420-N, S84-L A117-E, None
[10] = strain 8, mutations S84-R, D420-N, S84-L A117-E, None
[11] = strain 9, mutations S84-R N138-S, S458-A S474-N, S84-F D88-Y, None
[12] = strain 1, GyrA S84→L, ParC S133→A N138→S, GyrB None, ParE None
[13] = strain 2, GyrA S84→F, ParC None, GyrB None, ParE S458→L
[14] = strain 3, GyrA S84→L, ParC S84→I, GyrB None, ParE None
[15] = strain 4, GyrA S84→F D88→N, ParC D83→N, GyrB None, ParE T459→S
[16] = strain 5, GyrA S84→Y, ParC E88→K, GyrB Q468→R, ParE G405→S
[17] = strain 6, GyrA S84→L A117→E, ParC S84→R, GyrB None, ParE D420→N
[18] = strain 7, GyrA S84→L A117→E, ParC S84→R, GyrB None, ParE D420→N
[19] = strain 8, GyrA S84→L A117→E, ParC S84→R, GyrB None, ParE D420→N
[20] = strain 9, GyrA S84→F D88→Y, ParC S84→R N138→S, GyrB None, ParE S458→A S474→N

In the case of `C[C@H]1COc2c(N3CCN(C)CC3)c(F)cc3c(=O)c(C(=O)O)cn1c23` [Levo], the MIC [1, 3] is reported as 0.5 µg/mL (≈ 1.38 µM), the MIC [1, 4] is reported as 0.25 µg/mL (≈ 0.692 µM) and the MIC [1, 5] is reported as 1 µg/mL (≈ 2.77 µM). The MIC [1, 6] was 0.5 µg/mL (≈ 1.38 µM), the MIC [1, 7] was 1 µg/mL (≈ 2.77 µM) and the MIC [1, 8] was 2 µg/mL (≈ 5.53 µM). The MIC [1, 9] was 2 µg/mL (≈ 5.53 µM), the MIC [1, 10] was 2 µg/mL (≈ 5.53 µM) and the MIC [1, 11] was 4 µg/mL (≈ 11.1 µM).
In the case of `CC1(C)S[C@@H]2[C@H](NC(=O)Cc3ccccc3)C(=O)N2[C@H]1C(=O)O` [Penicillin, penicillin G], the MIC50 ([2]; Penicillin I strains) is reported as 0.25 µg/mL (≈ 0.748 µM), the MIC90 ([2]; Penicillin I strains) is reported as 1 µg/mL (≈ 2.99 µM) and the MIC ([2]; Penicillin I strains) is reported as 0.125 to 1 µg/mL (≈ 0.374 to 2.99 µM). It also gave an MIC50 ([2]; Penicillin R strains) of 4 µg/mL (≈ 12 µM), an MIC90 ([2]; Penicillin R strains) of 4 µg/mL (≈ 12 µM) and an MIC ([2]; Penicillin R strains) of 2 to 16 µg/mL (≈ 5.98 to 47.8 µM). It also gave an MIC50 ([2]; Penicillin S strains) of 0.016 µg/mL (≈ 0.0478 µM), an MIC90 ([2]; Penicillin S strains) of 0.03 µg/mL (≈ 0.0897 µM) and an MIC ([2]; Penicillin S strains) of 0.008 to 0.06 µg/mL (≈ 0.0239 to 0.179 µM). The MIC (pneumococcal strains; strain 1 (S) penicillin susceptible) was 0.06 µg/mL (≈ 0.179 µM), the MIC (pneumococcal strains; strain 2 (S) penicillin susceptible) was 0.03 µg/mL (≈ 0.0897 µM) and the MIC (pneumococcal strains; strain 3 (S) penicillin susceptible, quinolone-resistant) was 0.016 µg/mL (≈ 0.0478 µM). The MIC (pneumococcal strains; strain 4 (S) penicillin susceptible, quinolone-resistant) was 0.016 µg/mL (≈ 0.0478 µM), the MIC (pneumococcal strains; strain 5 (I) penicillin intermediate) was 0.25 µg/mL (≈ 0.748 µM) and the MIC (pneumococcal strains; strain 6 (I) penicillin intermediate) was 0.25 µg/mL (≈ 0.748 µM). The MIC (pneumococcal strains; strain 7 (I) penicillin intermediate) was 1 µg/mL (≈ 2.99 µM), the MIC (pneumococcal strains; strain 8 (I) penicillin intermediate) was 0.5 µg/mL (≈ 1.5 µM) and the MIC (pneumococcal strains; strain 9 (R) penicillin resistant) was 4 µg/mL (≈ 12 µM). The MIC (pneumococcal strains; strain 10 (I)) was 2 µg/mL (≈ 5.98 µM), the MIC (pneumococcal strains; strain 11 (R) penicillin resistant) was 4 µg/mL (≈ 12 µM) and the MIC (pneumococcal strains; strain 12 (R) penicillin resistant) was 4 µg/mL (≈ 12 µM).
`C[C@@H]1CN(c2c(F)c(N)c3c(=O)c(C(=O)O)cn(C4CC4)c3c2F)C[C@H](C)N1` [Spa] showed an MICs [1, 12] of 0.25 µg/mL, an MICs [1, 13] of 0.25 µg/mL and an MICs [1, 14] of 0.5 µg/mL. The MICs [1, 15] was 0.25 µg/mL, the MICs [1, 16] was 1 µg/mL and the MICs [1, 17] was 1 µg/mL. It also gave an MICs [1, 18] of 1 µg/mL, an MICs [1, 19] of 1 µg/mL and an MICs [1, 20] of 8 µg/mL.
Compound `C[C@@H]1CN(c2c(F)c(N)c3c(=O)c(C(=O)O)cn(C4CC4)c3c2F)C[C@H](C)N1` [Spar] has an MIC [1, 3] of 0.25 µg/mL (≈ 0.637 µM), an MIC [1, 4] of 0.25 µg/mL (≈ 0.637 µM) and an MIC [1, 5] of 0.5 µg/mL (≈ 1.27 µM). The MIC [1, 6] was 0.25 µg/mL (≈ 0.637 µM), the MIC [1, 7] was 1 µg/mL (≈ 2.55 µM) and the MIC [1, 8] was 1 µg/mL (≈ 2.55 µM). For the same compound, the MIC [1, 9] was 1 µg/mL (≈ 2.55 µM), the MIC [1, 10] was 1 µg/mL (≈ 2.55 µM) and the MIC [1, 11] was 8 µg/mL (≈ 20.4 µM).
`N[C@@H]1[C@H]2CN(c3nc4c(cc3F)c(=O)c(C(=O)O)cn4-c3ccc(F)cc3F)C[C@@H]12` [Tro] showed an MICs [1, 12] of 1 µg/mL, an MICs [1, 13] of 0.25 µg/mL and an MICs [1, 14] of 1 µg/mL. It also gave an MICs [1, 15] of 0.5 µg/mL, an MICs [1, 16] of 1 µg/mL and an MICs [1, 17] of 4 µg/mL. For the same compound, the MICs [1, 18] was 4 µg/mL, the MICs [1, 19] was 4 µg/mL and the MICs [1, 20] was 8 µg/mL.
`N[C@@H]1[C@H]2CN(c3nc4c(cc3F)c(=O)c(C(=O)O)cn4-c3ccc(F)cc3F)C[C@@H]12` [Trova] was tested, and the MIC [1, 3] was 1 µg/mL (≈ 2.4 µM), the MIC [1, 4] was 0.25 µg/mL (≈ 0.6 µM) and the MIC [1, 5] was 1 µg/mL (≈ 2.4 µM). For the same compound, the MIC [1, 6] was 0.5 µg/mL (≈ 1.2 µM), the MIC [1, 7] was 1 µg/mL (≈ 2.4 µM) and the MIC [1, 8] was 4 µg/mL (≈ 9.61 µM). For the same compound, the MIC [1, 9] was 4 µg/mL (≈ 9.61 µM), the MIC [1, 10] was 4 µg/mL (≈ 9.61 µM) and the MIC [1, 11] was 8 µg/mL (≈ 19.2 µM).
